The results in this text go back to patent publication US20100035762A1, “Prognostic Methods in Colorectal Cancer” (Oryzon Genomics, S.A., priority 2006, published 2010).

Test [1] concerns EphB4 promoter. In words: Treatment of SW620, EphB4 promoter methylation by PCR on bisulfite treated DNA with methylation specific primers. Type of test: cell-based. The conditions noted are these: SW620 cells. As to the method:
(§1) Top panel: changes in gene expression a measured by RT-PCR. Lower panel: changes in methylation a measure by PCR on bisulfite treated DNA with methylation specific primers.
(§2) Cultures of the colorectal cancer cell line SW620, characterized by a low expression level and methylation the EphB4 promoter; were treated during 72 h with different concentrations of 5aza- cytidin.

Test [2] deals with EphB4 gene expression in SW620 cells. In words: Treatment of colorectal cancer cell line SW620, EphB4 gene expression by RT-PCR. The conditions noted are these: 72 h. It counts as cell-based. As to the method: as §1, §2

In the case of `Nc1ncn([C@@H]2O[C@H](CO)[C@@H](O)[C@H]2O)c(=O)n1` [5-aza-cytidine], the “methylation of the EphB4 promoter” value in test [1] was “reduces the methylation”. In test [2], the “most effective dose for increase of EphB4 gene expression” value stood at 10 µM. The “level of EphB4 gene expression” value in test [2] (different concentrations) is reported as “increase”.
